Measurements as given in patent US5698528A, “Substance IT-62-B and medicinal composition containing the same” (Taiho Pharmaceutical Co., Ltd., priority 1994, dated 1997).
Converted amounts (≈) assume the structure as drawn.

What was measured:
[1] = test system: Klebsiella pneumoniae ATCC 29665; test: Antibacterial MIC (agar dilution); format: cell-based; conditions: ATCC29665, Muller-Hinton agar, 37° C., 18 hours, 10^6 cells/ml
Description: (§1) (1) Determination of antibacterial activities of the substance IT-62-B:
(§2) Minimum inhibitory concentrations (MICs) of the compound according to the present invention against various bacteria were determined in accordance with the MIC measurement method of Japan Society of Chemotherapy (see journal of Chemotherapy, Vol. 29, No. 1, pp. 76-79, 1981). More specifically, Muller-Hinton agar media (product of Difco Co.) containing the compound according to the present invention at various concentrations were used. The test organisms diluted to 10^6 cells/ml, respectively, were inoculated said test organisms having been grown on the same medium as described above.

[2] = test system: Alcaligenes faecalis IAM 1015; test: Antibacterial MIC (agar dilution); format: cell-based; conditions: IAM1015, Muller-Hinton agar, 37° C., 18 hours, 10^6 cells/ml
Description: as §1, §2

[3] = test system: Escherichia coli IAM 1268; test: Antibacterial MIC (agar dilution); format: cell-based; conditions: IAM1268, Muller-Hinton agar, 37° C., 18 hours, 10^6 cells/ml
Description: as §1, §2

[4] = test system: Proteus vulgaris IID OX-19; test: Antibacterial MIC (agar dilution); format: cell-based; conditions: IIDOX19, Muller-Hinton agar, 37° C., 18 hours, 10^6 cells/ml
Description: as §1, §2

[5] = test system: Salmonella typhymurium G-46; test: Antibacterial MIC (agar dilution); format: cell-based; conditions: G46, Muller-Hinton agar, 37° C., 18 hours, 10^6 cells/ml
Description: as §1, §2

[6] = test system: Staphylococcus aureus (MRSA)92-1192; test: Antibacterial MIC (agar dilution); format: cell-based; conditions: 18 h
Description: as §1, §2

[7] = test system: Pseudomonas aeruginosa NCTC 10490; test: Antibacterial MIC (agar dilution); format: cell-based; conditions: NCTC10490, Muller-Hinton agar, 37° C., 18 hours, 10^6 cells/ml
Description: as §1, §2

Bacillus cereus IFO 3001 = test: Antibacterial MIC (agar dilution); format: cell-based; conditions: IFO3001, Muller-Hinton agar, 37° C., 18 hours, 10^6 cells/ml
Description: as §1, §2

[8] = test system: Micrococcus luteus ATCC 9341; test: Antibacterial MIC (agar dilution); format: cell-based; conditions: ATCC9341, Muller-Hinton agar, 37° C., 18 hours, 10^6 cells/ml
Description: as §1, §2

[9] = test system: Staphylococcus aureus Smith; test: Antibacterial MIC (agar dilution); format: cell-based; conditions: Muller-Hinton agar, 37° C., 18 hours, 10^6 cells/ml
Description: as §1, §2

[10] = test system: Enterococcus faecalis IFO 12968; test: Antibacterial MIC (agar dilution); format: cell-based; conditions: IFO12968, Muller-Hinton agar, 37° C., 18 hours, 10^6 cells/ml
Description: as §1, §2

[11] = test system: Serratia marcescens IFO 12648; test: Antibacterial MIC (agar dilution); format: cell-based; conditions: IFO12648, Muller-Hinton agar, 37° C., 18 hours, 10^6 cells/ml
Description: as §1, §2

[12] = test system: Bacillus subtilis ATCC(rec^+); test: Antibacterial MIC (agar dilution); format: cell-based; conditions: Muller-Hinton agar, 37° C., 18 hours, 10^6 cells/ml
Description: as §1, §2

[13] = test system: Bacillus subtilis ATCC(rec^-); test: Antibacterial MIC (agar dilution); format: cell-based; conditions: Muller-Hinton agar, 37° C., 18 hours, 10^6 cells/ml
Description: as §1, §2

[14] = test system: Bacillus subtilis ATCC 6633; test: Antibacterial MIC (agar dilution); format: cell-based; conditions: ATCC6633, Muller-Hinton agar, 37° C., 18 hours, 10^6 cells/ml
Description: as §1, §2

[15] = test system: Micrococcus luteus ATCC 10240; test: Antibacterial MIC (agar dilution); format: cell-based; conditions: ATCC10240, Muller-Hinton agar, 37° C., 18 hours, 10^6 cells/ml
Description: as §1, §2

[16] = test system: Staphylococcus epidermidis ATCC 12228; test: Antibacterial MIC (agar dilution); format: cell-based; conditions: ATCC12228, Muller-Hinton agar, 37° C., 18 hours, 10^6 cells/ml
Description: as §1, §2

Escherichia coli NIHJ = test: Antibacterial MIC (agar dilution); format: cell-based; conditions: Muller-Hinton agar, 37° C., 18 hours, 10^6 cells/ml
Description: as §1, §2

[17] = test system: Staphylococcus aureus (MRSA)70; test: Antibacterial MIC (agar dilution); format: cell-based; conditions: 18 h
Description: as §1, §2

[18] = test system: KB cell line derived from human nasopharyngeal carcinoma; test: 50% inhibitory concentration against KB cell line (growth inhibition, trypan blue viable count); format: cell-based; conditions: 72 h, incubation for 3 days, 37° C., trypan blue dye exclusion
Description: A. Determination of 50% inhibitory concentration against the established culture cell line derived from human nasopharyngeal carcinoma:
A 50% inhibitory concentration (IC50) of the compound according to the present invention against an established culture cell line (KB cell line) derived from human nasopharyngeal carcinoma was determined. More specifically, the KB cell line (2×10^3 cells/ml of medium) was cultured in an Eagle's minimal essential medium supplemented with a 10% calf serum, and 3 ml of this culture medium was incubated in a plastic Petri dish to incubate it at 37° C. in a CO2 -incubator (5% CO2). After overnight incubation, the compound according to the present invention was added with the compound diluted from a concentration of 1 μg/ml to a concentration of 1×10^-6 μg/ml by 10-fold dilution.

[19] = test system: murine leukemia P388 cells; test: Survival effect against murine leukemia P388 cells implanted intraperitoneally; format: in vivo, mouse (male CDF1); conditions: 0.25 mg/kg intraperitoneally, 1 day after i.p. implantation of 1×10^6 P388 cells, male CDF1 mice
Source text: B. Survival effect against murine leukemia P388 cells implanted intraperitoneally:
The antitumor activity of the compound according to the present invention was judged by the survival effect against murine leukemia (p388 cells). The three of Male CDF1 mice (aged 6 weeks) were used as test animals for an administering group and 10 mice for an untreating control group. Murine leukemia P388 cells (1×10^6 cells) were implanted intraperitoneally in all the mice. Upon elapsed time of 1 day (the first day) after the implantation, the substance IT-62-B dissolved in a 3.5% solution of dimethyl sulfoxide in physiological saline was administered intraperitoneally to the mice of the administering group at a dose of 0.25 mg/kg so as to observe survival days of the mice. […] [formula]

COc1cccc2c1C(=O)c1c(O)c3c(c(O)c1C2=O)CC(O)(C(C)=O)CC3OC1CC2C(OC(CC(C)O)OC(C)C3OC(C(C)CO)C(=O)N23)C(C)O1 (stereo not drawn) [IT-62-B]
MIC [1]: > 100 µg/mL | MIC [2]: 12.5 µg/mL (≈ 16.2 µM) | MIC [3]: 50 µg/mL (≈ 65 µM) | MIC [4]: > 100 µg/mL | MIC [5]: > 100 µg/mL | MIC [6]: 12.5 µg/mL (≈ 16.2 µM) | MIC [7]: > 100 µg/mL | MIC (Bacillus cereus IFO 3001): 12.5 µg/mL (≈ 16.2 µM) | MIC [8]: 3.13 µg/mL (≈ 4.07 µM) | MIC [9]: 6.25 µg/mL (≈ 8.12 µM) | MIC [10]: 50 µg/mL (≈ 65 µM) | MIC [11]: > 100 µg/mL | MIC [12]: 6.25 µg/mL (≈ 8.12 µM) | MIC [13]: 0.39 µg/mL (≈ 0.507 µM) | MIC [14]: 3.13 µg/mL (≈ 4.07 µM) | MIC [15]: 1.56 µg/mL (≈ 2.03 µM) | MIC [16]: 25 µg/mL (≈ 32.5 µM) | MIC (Escherichia coli NIHJ): 100 µg/mL (≈ 130 µM) | MIC [17]: 12.5 µg/mL (≈ 16.2 µM) | IC50 [18]: 0.006 µg/mL (≈ 0.00779 µM) | Percent increase in survival [19]: 119%
